Data: US6369069B1 (Aventis Pharma Deutschland GmbH, priority 1998, dated 2002)

System: Na^+-dependent Cl^−/HCO3^− exchanger (NCBE)
Assay: Inhibition of the Na+-dependent Cl−/HCO3− exchanger (NCBE) in human endothelial cells (pHi recovery, BCECF fluorescence, FLIPR)
Assay type: cell-based
Conditions: 10 μM
Experimental: Inhibition of the Na^+-dependent Cl^−/HCO3^− exchanger (NCBE) in human endothelial cells
Human endothelial cells (ECV-304) were detached form culture flasks with the aid of trypsin/EDTA buffer (0.05/0.02% in phosphate buffer) and, after centrifugation (100 g, 5 min), taken up in a buffered saline solution (mmol/l: 115 NaCl, 20 NH4Cl, 5 KCl, 1 CaCl2, 1 MgSO4, 20 N-(2-hydroxyethyl)-piperazine-N[…]-2-ethanesulfonic acid (HEPES), 5 glucose and 1 g/l of bovine serum albumin; pH 7.4). This cell suspension was incubated at 37 °C. for 20 min with 5 μM BCECF acetoxymethyl ester. The cells were then washed and resuspended in a sodium- and bicarbonate-free buffer solution (mmol/l: 5 HEPES, 133.8 choline chloride, 4.7 KCl, 1.25 MgCl2, 0.97 K2HPO4, 0.23 KH2PO4, 5 glucose; pH 7.4).
For the subsequent fluorescence measurement in the FLIPR (Fluorescent Imaging Plate Reader), 100 μl of this cell suspension in each case containing 20,000 cells were added by pipette per well of a 96-well microtiter plate and this microtiter plate was centrifuged (100 g, 5 min). In the FLIPR, 100 μl of buffer solution in each case were then removed from a further prepared microtiter plate and added by pipette to each of the 96 wells of the measuring plate. In this case, for a 100% control, i.e. a recovery of the intracellular pH (pHi) by means of the NCBE, a bicarbonate- and sodium-containing buffer solution (mmol/l: 5 HEPES, 93.8 NaCl, 40 NaHCO3, 4.7 KCl, 1.25 CaCl2, 1.25 MgCl2, 0.97 Na2HPO4, 0.23 NaH2PO4, 5 glucose; pH 7.4) which contained 50 μM HOE 642 was used. For a 0% control, i.e. no pHi recovery at all, a bicarbonate-free, sodium-containing buffer solution (mmol/l: 5 HEPES, 133.8 NaCl, 4.7 KCl, 1.25 CaCl2, 1.25 MgCl2, 0.97 Na2HPO4, 0.23 NaH2PO4, 5 glucose; pH 7.4) to which 50 μM HOE 642 were also added was employed. The compounds according to the invention were added in various concentrations of the sodium- and bicarbonate-containing solution. After addition of the buffer solutions to the dye-loaded acidified cells situated in the measuring plate, the increase in the fluorescence intensity which corresponded to an increase in the pHi was determined in each well of the microtiter plate.
The kinetics were in this case recorded at 35° C. over a period of 2 minutes. The increase in the fluorescence intensities for different concentrations of the compounds according to the invention was related to the two controls and from this the inhibitory action of the substances was determined.

Going from COc1ccc(CN(Cc2ccc(-c3ccccc3S(=O)(=O)NC#N)cc2)C(=O)Cc2cccc(OC)c2)cc1 [Example 21] to COc1cccc(CN(Cc2ccc(-c3ccccc3S(=O)(=O)NC#N)cc2)C(=O)Cc2ccccc2)c1 [Example 126], the “Residual activity % of the NCBE at 10 μM” value rises from 52.3% to 53.7%.

Compared with COCCC(=O)N(Cc1ccc(-c2ccccc2S(=O)(=O)NC#N)cc1)Cc1ccccc1F [Example 326], COCCC(=O)N(Cc1ccc(-c2ccccc2S(=O)(=O)NC#N)cc1)C1CCCc2ccccc21 (stereo not shown) [Example 325] is higher in “Residual activity % of the NCBE at 10 μM” value: 25.6% for the first, 33.8% for the second.

First: N#CNS(=O)(=O)c1ccccc1-c1ccc(CN(Cc2ccc3ccccc3c2)C(=O)CC2CCCC2)cc1 [Example 360]
Second: Cc1cccc(CN(Cc2ccc(-c3ccccc3S(=O)(=O)NC#N)cc2)C(=O)CC2CCCC2)c1 [Example 361]
The “Residual activity % of the NCBE at 10 μM” value of the first is higher: 36.9% for the first, 29.4% for the second.

Compared with COC(=O)C(Cc1ccccc1)N(Cc1ccc(-c2ccccc2S(=O)(=O)NC#N)cc1)C(=O)CCCc1cccs1 (stereo not shown) [Example 193], N#CNS(=O)(=O)c1ccccc1-c1ccc(CN(Cc2ccccc2)C(=O)Cc2cccs2)cc1 [Example 25] is lower in “Residual activity % of the NCBE at 10 μM” value: 62.8% for the first, 16.6% for the second.

Compared with N#CNS(=O)(=O)c1ccccc1-c1ccc(CN(CCc2cccs2)C(=O)COc2ccccc2)cc1 [Example 165], N#CNS(=O)(=O)c1ccccc1-c1ccc(CN(Cc2cccs2)C(=O)NCc2ccccc2)cc1 [Example 295] is lower in “Residual activity % of the NCBE at 10 μM” value: 56.8% for the first, 8.0% for the second.

First: COc1ccc(CCN(Cc2ccc(-c3ccccc3S(=O)(=O)NC#N)cc2)C(=O)c2cc3ccccc3s2)cc1 [Example 80]
Second: N#CNS(=O)(=O)c1ccccc1-c1ccc(CN(Cc2ccc3c(c2)OCO3)C(=O)c2cc3ccccc3s2)cc1 [Example 77]
The “Residual activity % of the NCBE at 10 μM” value of the first is lower: 66.7% for the first, 81.8% for the second.

Going from N#CNS(=O)(=O)c1ccccc1-c1ccc(CN(Cc2ccc(Cl)cc2)C(=O)CCc2ccccc2)cc1 [Example 66] to N#CNS(=O)(=O)c1ccccc1-c1ccc(CN(Cc2cccc(Cl)c2)C(=O)Cc2ccc(O)cc2)cc1 [Example 285], the “Residual activity % of the NCBE at 10 μM” value falls from 83.1% to 58.8%.

First: CC(=O)N(CCc1cccs1)Cc1ccc(-c2ccccc2S(=O)(=O)NC#N)cc1 [Example 179]
Second: N#CNS(=O)(=O)c1ccccc1-c1ccc(CN(CCO)C(=O)Cc2cccs2)cc1 [Example 26]
The “Residual activity % of the NCBE at 10 μM” value of the first is higher: 78.3% for the first, 47.6% for the second.

Compared with COCCN(Cc1ccc(-c2ccccc2S(=O)(=O)NC#N)cc1)C(=O)CCCCc1cccs1 [Example 219], CN(Cc1ccc(-c2ccccc2S(=O)(=O)NC#N)cc1)C(=O)CCCCc1cccs1 [Example 222] is lower in “Residual activity % of the NCBE at 10 μM” value: 82.5% for the first, 76.7% for the second.

First: N#CNS(=O)(=O)c1ccccc1-c1ccc(CN(CCCc2ccccc2)C(=O)Cc2c[nH]c3ccccc23)cc1 [Example 202]
Second: COC(=O)C(Cc1ccccc1)N(Cc1ccc(-c2ccccc2S(=O)(=O)NC#N)cc1)C(=O)Cc1c[nH]c2ccccc12 (stereo not shown) [Example 209]
The “Residual activity % of the NCBE at 10 μM” value of the first is lower: 38.5% for the first, 56.2% for the second.

Compared with COc1cccc(CN(Cc2ccc(-c3ccccc3S(=O)(=O)NC#N)cc2)C(=O)NCc2ccccc2)c1 [Example 303], COc1cccc(CN(Cc2ccc(-c3ccccc3S(=O)(=O)NC#N)cc2)C(=O)c2ccccc2Cl)c1 [Example 106] is higher in “Residual activity % of the NCBE at 10 μM” value: 65.8% for the first, 98.9% for the second.

Compared with C=CCOC(=O)N(Cc1ccc(Cl)cc1)Cc1ccc(-c2ccccc2S(=O)(=O)NC#N)cc1 [Example 46], CN(C)c1ccc(CN(Cc2ccc(-c3ccccc3S(=O)(=O)NC#N)cc2)C(=O)Cc2ccc(Cl)cc2)cc1 [Example 149] is higher in “Residual activity % of the NCBE at 10 μM” value: 52.2% for the first, 77.4% for the second.

Going from COc1ccccc1CN(Cc1ccc(-c2ccccc2S(=O)(=O)NC#N)cc1)C(=O)C(c1ccccc1)c1ccccc1 [Example 114] to C[C@@H](c1ccccc1)N(Cc1ccc(-c2ccccc2S(=O)(=O)NC#N)cc1)C(=O)c1ccccc1F [Example 93], the “Residual activity % of the NCBE at 10 μM” value rises from 81.7% to 92.9%.

First: N#CNS(=O)(=O)c1ccccc1-c1ccc(CN(C(=O)CC2CCCCC2)C2CCCc3ccccc32)cc1 (stereo not shown) [Example 355]
Second: Cc1cccc(CN(Cc2ccc(-c3ccccc3S(=O)(=O)NC#N)cc2)C(=O)CC2CCCCC2)c1 [Example 351]
The “Residual activity % of the NCBE at 10 μM” value of the first is higher: 46.8% for the first, 27.2% for the second.

Compared with CC(C)(C)c1ccc(C(=O)N(Cc2ccccc2)Cc2ccc(-c3ccccc3S(=O)(=O)NC#N)cc2)cc1 [Example 31], COc1ccc(CN(Cc2ccc(-c3ccccc3S(=O)(=O)NC#N)cc2)C(=O)c2ccc(C(C)(C)C)cc2)cc1 [Example 33] is higher in “Residual activity % of the NCBE at 10 μM” value: 52.2% for the first, 67.2% for the second.

First: N#CNS(=O)(=O)c1ccccc1-c1ccc(CN(Cc2ccccc2)C(=O)Cc2ccccc2[N+](=O)[O-])cc1 [Example 243]
Second: Cc1ccccc1CN(Cc1ccc(-c2ccccc2S(=O)(=O)NC#N)cc1)C(=O)Cc1cccs1 [Example 312]
The “Residual activity % of the NCBE at 10 μM” value of the first is higher: 99.9% for the first, 12.5% for the second.

Compared with COc1ccc(CN(Cc2ccc(-c3ccccc3S(=O)(=O)NC#N)cc2)C(=O)C2CCCCC2)cc1 [Example 15], N#CNS(=O)(=O)c1ccccc1-c1ccc(CN(CC2CCCCC2)C(=O)C(=O)c2ccco2)cc1 [Example 258] is higher in “Residual activity % of the NCBE at 10 μM” value: 67.6% for the first, 95.8% for the second.

Going from N#CNS(=O)(=O)c1ccccc1-c1ccc(CN(CC2CCCO2)C(=O)CC2CCCCC2)cc1 (stereo not shown) [Example 358] to N#CNS(=O)(=O)c1ccccc1-c1ccc(CN(Cc2cccs2)C(=O)CCC2CCCCC2)cc1 [Example 255], the “Residual activity % of the NCBE at 10 μM” value rises from 55.5% to 61.0%.

Compared with N#CNS(=O)(=O)c1ccccc1-c1ccc(CN(Cc2ccc3c(c2)OCO3)C(=O)c2ccccc2Cl)cc1 [Example 107], Cc1ccc(CN(Cc2ccc(-c3ccccc3S(=O)(=O)NC#N)cc2)C(=O)c2cccs2)cc1 [Example 85] is lower in “Residual activity % of the NCBE at 10 μM” value: 96.4% for the first, 51.1% for the second.

Going from COc1cccc(CN(Cc2ccc(-c3ccccc3S(=O)(=O)NC#N)cc2)C(=O)Nc2c(F)cccc2F)c1 [Example 301] to N#CNS(=O)(=O)c1ccccc1-c1ccc(CN(Cc2cccc(Cl)c2)C(=O)Nc2c(F)cccc2F)cc1 [Example 305], the “Residual activity % of the NCBE at 10 μM” value falls from 87.9% to 84.9%.

Compared with COc1ccc(CC(=O)N(Cc2ccc(-c3ccccc3S(=O)(=O)NC#N)cc2)Cc2cc(OC)c(OC)c(OC)c2)cc1 [Example 176], COc1cc(C(=O)N(Cc2ccc(Cl)cc2)Cc2ccc(-c3ccccc3S(=O)(=O)NC#N)cc2)cc(OC)c1OC [Example 52] is lower in “Residual activity % of the NCBE at 10 μM” value: 83.9% for the first, 59.9% for the second.

First: N#CNS(=O)(=O)c1ccccc1-c1ccc(CN(Cc2ccc(Cl)cc2Cl)C(=O)CCS(=O)(=O)c2ccccc2)cc1 [Example 279]
Second: N#CNS(=O)(=O)c1ccccc1-c1ccc(CN(C(=O)Cc2ccsc2)C2CC2)cc1 [Example 229]
The “Residual activity % of the NCBE at 10 μM” value of the first is higher: 90.5% for the first, 86.7% for the second.

Same assay, conditions: compound at 10 μM; R(3) to R(7) hydrogen series

First: N#CNS(=O)(=O)c1ccccc1-c1ccc(CN(CC2CCCO2)C(=O)CC2CCCC2)cc1 (stereo not shown) [Example 368]
Second: CC(C(=O)N(Cc1ccc(-c2ccccc2S(=O)(=O)NC#N)cc1)CC1(c2ccccc2)CCCC1)c1cccs1 (stereo not shown) [Example 393]
The “Residual activity % of the NCBE at 10 μM” value of the first is higher: 51.0% for the first, 16.7% for the second.

Same assay, conditions: compound at 10 μM; sub-table with R7 substituent

Compared with Cc1ccc(-c2ccc(CN(Cc3cccc4ccccc34)C(=O)C(C)c3cccs3)cc2)c(S(=O)(=O)NC#N)c1 (stereo not shown) [Example 522], Cc1ccc(-c2ccc(CN(Cc3cccc(Cl)c3Cl)C(=O)C(C)c3cccs3)cc2)c(S(=O)(=O)NC#N)c1 (stereo not shown) [Example 528] is lower in “Residual activity % of the NCBE at 10 μM” value: 85.6% for the first, 72.0% for the second.

Compared with Cc1ccc(-c2ccc(CN(Cc3cccs3)C(=O)C(C)c3cccs3)cc2)c(S(=O)(=O)NC#N)c1 (stereo not shown) [Example 525], Cc1ccc(-c2ccc(CN(Cc3cccc(Cl)c3Cl)C(=O)Cc3cccs3)cc2)c(S(=O)(=O)NC#N)c1 [Example 520] is higher in “Residual activity % of the NCBE at 10 μM” value: 74.0% for the first, 85.9% for the second.

Compared with Cc1ccc(-c2ccc(CN(CCc3ccccc3)C(=O)CC3CCCCC3)cc2)c(S(=O)(=O)NC#N)c1 [Example 550], Cc1ccc(-c2ccc(CN(Cc3cccs3)C(=O)CC3CCCCC3)cc2)c(S(=O)(=O)NC#N)c1 [Example 549] is higher in “Residual activity % of the NCBE at 10 μM” value: 63.3% for the first, 67.3% for the second.
